# Test results as given in patent US20170211048A1, “ENHANCED REPROGRAMMING TO IPS CELLS” (Boehringer Ingelheim International GmbH, priority 2014, published 2017).
# What was measured:
# Format in all cases: cell-based, mouse
# [1] = test system: Reprogrammable transgenic MEFs (Tet-OKSM, Rosa26-rtTAM2, Oct4-GFP); assay: transient siRNA transfection during iPSC reprogramming; conditions: siRNA transfected 1 to 3 times during doxycycline treatment
# From the text: FIG. 26: Transient suppression of Chaf1a, Chaf1b or Ube2i using siRNA transfection enhances iPSC reprogramming. Reprogrammable transgenic MEFs (Tet-OKSM, Rosa26-rtTAM2, Oct4-GFP) where transfected 1 to 3 times at the indicated days of doxycyline treatment with siRNAs targeting Renilla, Chaf1a, Chaf1b, Ube2i. Shown is the fraction of Oct4-GFP positive cells after 11 days. […] Suppression of these targets at early time points of reprogramming (day 1-3 following OKSM expression) seems critical and sequential transfections at different days can enhance this effect. […] The siRNA molecules used in the study have the following sequence: Ube2i.414—2: […] (SEQ ID NO:103), Chaf1a.3120 […] (SEQ ID NO:104), Chaf1b.271 […] (SEQ ID NO:105) and Ren.713 […] (SEQ ID NO:106).
# [2] = test system: Oct4-GFP;CAGGS-rtTA3 double-transgenic MEFs; assay: short-term transient OKSM expression and Tet-regulated shRNA; conditions: doxycycline for 2 or 4 days
# Experimental: FIG. 22: Short-term transient expression of OKSM and suppression of Chaf1a for only 2-4 days enable robust iPSC reprogramming. Oct4-GFP;CAGGS-rtTA3 double-transgenic MEFs were first transduced with a Tet-regulatable shRNA expression vector encoding a potent Chaf1a shRNA (T3G-mCherry-miRE.Chaf1a.3118), and 3 days later transduced with lentiviral vectors inducibly expressing OKSM from the Tet-responsive promoters TRE (TetO-STEMCCA) or TRE3G (T3G-4Fpuro). Cell were treated with doxycyline for 2 or 4 days starting at day in OKSM infection, triggering a transient and reversible OKSM expression and Chaf1a suppression. Shown is the percentage of Oct4-GFP positive cells at day 11 after lentiviral infection. Error bars indicate standard deviation (SD) of 3 biological replicates. Suppression of Chaf1a, Chaf1b and Ube2i enhance iPSC reprogramming in the use of both Tet-inducible OKSM expression vectors.
# OSKM/RR/OG-MEFs = assay: single-shRNA validation, flow cytometry of the Oct4-GFP reporter; conditions: FIG. 1, day 11 after doxycycline induction; DMEM with FCS and ascorbate
# Experimental: To validate hits identified in the primary multiplexed screen, a set of 32 independent shRNAs including several of the top hits as well as a panel of intermediately scoring shRNAs were tested in single assays. To this end, OSKM/RR/OG-MEFs were transduced with individual pLENC shRNAs in biological triplicates, selected, and treated with Dox for OSKM induction. The iPS reprogramming efficacy was quantified using flow cytometry analysis of the Oct-4-GFP reporter (FIG. 1) and microscopy (FIG. 2a).
# To this end, described MEFs with doxycycline inducible reprogramming factors (OSKM, 4F, Yamanaka factors) were transduced with pLENC-shRNA vectors (co-expressing miRE-based shRNAs, mCherry and a Neo resistance gene) in biological triplicate as described previously. Selection for infected cells was based on G418 resistance. 3 days after infection, cells were trypsinized and each replicate was plated in multiple wells in presence of FCS and ascorbate containing medium as well as doxycycline. Cells were subjected to various conditions for iPS formation starting 24 h after Doxycycline addition, i.e. prior to expected full expression of OSKM factors. Doxycycline was added to media for 7 days. […]
# shRNAs were transduced into OSKM MEFs. […] Cells were analyzed using a FACS BD LSRFortessa.
# [3] = test system: MEFs with doxycycline inducible reprogramming factors; assay: iPS colony formation assay in serum replacement, LIF and 2i; conditions: 2i plus LIF at single cell density, 10000 cells/10 cm dish, doxycycline 7 days
# From the text: In order to test the achieved factor of iPS formation enhancement in a colony formation assay, we chose optimal conditions described for iPS formation, i.e. serum replacement, LIF and 2i. The two inhibitors (2i) are shown to support the ground state of pluripotency and enhance iPS formation. More specifically, 2i supports the transition of pre-iPS cells to iPS cells.
# In doing so, we intended to measure the factor of improvement in optimal, potentially saturated conditions. 10000 cells were plated/10 cm dish and reprogramming was induced by addition of doxycycline for 7 days. Reprogramming in presence of 2i furthermore represents an additional condition to test versatility of herein described enhanced reprogramming regimen. […]
# reprogrammable MEFs = assay: FACS based timeline of Oct4-GFP expression during reprogramming; conditions: days of OKSM expression, FIG. 3
# From the text: In order to observe the kinetics of reprogramming in the enhanced reprogramming regimen, we quantified GFP positive cells using FACS analysis. GFP driven from the endogenous Oct4 locus serves as a marker for Oct4 expression and thus iPS and possibly pre-iPS state. […] In contrast, Ube2i suppression only slightly accelerated the reprogramming timeline, but made the process much more efficient, and ultimately exceeds the effects of observed for Caf-1 suppression (i.e. the percentage of GFP+ cells actually overtakes the enhancement achieve through Caf-1 suppression at day 10).
# The inventors further decided to examine the effects of the gene expression reduction in the absence of the identified chromatin barriers, by following the emergence of Oct4-GFP^+ cells over time. While suppression of Ube2i promoted Oct4-GFP activation slightly earlier than controls (day six with Ube2i shRNA vs. day nine with Renilla shRNA), the suppression of either CAF-1 subunit triggered a dramatic acceleration of this process and consistently generated Oct4-GFP+ cells as early as four days of OKSM expression (FIG. 3). Similar effects were observed by flow cytometry-based analysis of Nanog expression (FIG. 15).
substance,measurement,setting,value
"CACAATTTACTGCCAAAACAA (listed as DNA, chemistry not fully specified) [Ube2i.414—2]",effect on fraction of Oct4-GFP positive cells after 11 days,[1],enhances reprogramming
"CAGCTACTTCCAAATTGTAAA (listed as DNA, chemistry not fully specified) [Chaf1a.3120]",effect on fraction of Oct4-GFP positive cells after 11 days,[1],enhances reprogramming
UUUACAAUUUGGAAGUAGCUG (expressed or natural sequence) [Chaf1a.3118],iPS cell formation (Oct4-GFP positive cells at day 11),[2],robust formation of iPS cells
shRNA.Ren.713: neutral control shRNA (Ren.713) targeting Renilla (guide AGGAATTATAATGCTTATCTA),Oct4-GFP+ cells,OSKM/RR/OG-MEFs,< 1%
same,Colony number,[3],0
same,time of Oct4-GFP activation,reprogrammable MEFs,day nine
